Source: patent US9549921B2, “Heterocyclic compounds and methods of use thereof for the treatment of hepatitis C” (priority 2014, dated 2017)
Read-outs that look alike come from different tables or passages of the source.

Columns and labels:
HCV replicon genotype 1a = assay: HCV replicon assay, genotype 1a (cell ELISA for NS3/4A); assay type: cell-based, hepatitis C virus
Procedure: (§1) The HCV NS5B inhibitory activity of the present compounds may be tested using assays known in the art. The HCV NS5B polymerase inhibitors described herein have activities in a genotype 1b replicon assay as described in the Examples. The assay is performed by incubating a replicon harboring cell-line in the presence of inhibitor for a set period of time and measuring the effect of the inhibitor on HCV replicon replication either directly by quantifying replicon RNA level, or indirectly by measuring enzymatic activity of a co-encoded reporter enzyme such as luciferase or β-lactamase. By performing a series of such measurements at different inhibitor concentrations, the effective inhibitory concentration of the inhibitor (EC50 or EC90) is determined. See Jan M. Vrolijk et al., A replicons-based bioassay for the measurement of interferons in patients with chronic hepatitis C, 110 J. VIROLOGICAL METHODS 201 (2003). Such assays may also be run in an automated format for high through-put screening. See Paul Zuck et al., A cell-based β-lactamase reporter gene assay for the identification of inhibitors of hepatitis C virus replication, 334 ANALYTICAL BIOCHEMISTRY 344 (2004).
(§2) Measurement of inhibition by compounds was performed using the HCV replicon system. Several different replicons encoding different HCV genotypes or mutations were used. In addition, potency measurements were made using different formats of the replicon assay, including different ways of measurements and different plating formats. See Jan M. Vrolijk et al., A replicons-based bioassay for the measurement of interferons in patients with chronic hepatitis C, 110 J. VIROLOGICAL METHODS 201 (2003); Steven S. Carroll et al., Inhibition of Hepatitis C Virus RNA Replication by 2′-Modified Nucleoside Analogs, 278(14) J. BIOLOGICAL CHEMISTRY 11979 (2003). However, the underlying principles are common to all of these determinations, and are outlined below.
(§3) Stable neomycin phosphotransferase encoding replicons-harboring cell lines were used, so all cell lines were maintained under G418 selection prior to the assay. Potency was deteremined using a cell ELISA assay with an antibody to the replicons encoded NS3/4a protease. See Caterina Trozzi et al., In Vitro Selection and Characterization of Hepatitis C Virus Serine Protease Variants Resistant to an Active-Site Peptide Inhibitor, 77(6) J. Virol. 3669 (2003). To initiate an assay, replicon cells were plated in the presence of a dilution series of test compound in the absence of G418. Typically, the assays were performed in a 96-well plate formate for manual operation, or a 384-well plate format for automated assay. Replicon cells and compound were incubated for 96 hours. At the end of the assay, cells were washed free of media and compound, and the cells were then lysed. RNA was quantified indirectly through detection of replicon-encoded NS3/4A protein levels, through an ELISA-based assay with an antibody specific for NS3/4A. IC50 determinations were calculated as a percentage of a DMSO control by fitting the data to a four-parameter fit function and the data obtained is provided in the table below.
(§4) Data for selected compounds of the present invention was obtained for genotypes 1a and 1b using this method and is provided in the table below: […]

HCV replicon genotype 1b = assay: HCV replicon assay, genotype 1b (cell ELISA for NS3/4A); assay type: cell-based, hepatitis C virus
Procedure: as §1, §2, §3, §4

[1] = read-out: 1a IC50, HCV genotype 1a replicon cells, 96 hours incubation, NS3/4A ELISA readout, % of DMSO control
[2] = read-out: 1b IC50, HCV genotype 1b replicon cells, 96 hours incubation, NS3/4A ELISA readout, % of DMSO control
[3] = Hepatitis C virus, 96 h, read-out: 1a IC50 (nM), HCV genotype 1a replicon cells, 96 hours incubation, NS3/4A ELISA readout, % of DMSO control
[4] = Hepatitis C virus, 96 h, read-out: 1b IC50 (nM), HCV genotype 1b replicon cells, 96 hours incubation, NS3/4A ELISA readout, % of DMSO control

SMILES | IC50 (HCV replicon genotype 1a; [1]) [nM] | IC50 (HCV replicon genotype 1b; [2]) [nM] | IC50 (HCV replicon genotype 1a; [3]) [nM] | IC50 (HCV replicon genotype 1b; [4]) [nM]
CNC(=O)c1c(-c2ccc(F)cc2)oc2cc(N(C)S(C)(=O)=O)c([C@@H]3CCCN(C(=O)c4cc5c(F)cccc5n4C)C3)cc12 (single isomer, unassigned) [Example 26, 5-(1-(4-fluoro-1-methyl-1H-indole-2-carbonyl)piperidin-3-yl)-2-(4-fluorophenyl)-N-methyl-6-(N-methylmethylsulfonamido)benzofuran-3-carboxamide] | 15.8 | 12.6 |  | 
CNC(=O)c1c(-c2ccc(F)cc2)oc2cc(N(C)S(C)(=O)=O)c(C3CCCN(C(=O)[C@H](NC(=O)OC(C)(C)C)c4ccccc4F)C3)cc12 (single isomer, unassigned) [Example 27] |  |  | 44.4 | 35.2
CNC(=O)c1c(-c2ccc(F)cc2)oc2cc(N(C)S(C)(=O)=O)c(C3CCCN(C(=O)[C@H](NC(=O)OC(C)(C)C)c4ccccc4F)C3)cc12 (single isomer, unassigned) [Example 28] | 23.9 | 21.4 |  | 
CNC(=O)c1c(-c2ccc(F)cc2)oc2cc(N(C)S(C)(=O)=O)c([C@@H]3CCCN(C(=O)[C@H](N)c4ccccc4F)C3)cc12 (single isomer, unassigned) [Example 29] |  |  | 83.1 | 148
CNC(=O)c1c(-c2ccc(F)cc2)oc2cc(N(C)S(C)(=O)=O)c([C@@H]3CCCN(C(=O)[C@H](N)c4ccccc4F)C3)cc12 (single isomer, unassigned) [Example 30] | 122 | 215 |  | 
CNC(=O)c1c(-c2ccc(F)cc2)oc2cc(N(C)S(C)(=O)=O)c([C@@H]3CCCN(C(=O)c4cc5cccc(OC)c5[nH]4)C3)cc12 (single isomer, unassigned) [Example 41, 2-(4-fluorophenyl)-5-(1-(7-methoxy-1H-indole-2-carbonyl)piperidin-3-yl)-N-methyl-6-(N-methylmethylsulfonamido)benzofuran-3-carboxamide] | 30.7 |  |  | 13.5
CNC(=O)c1c(-c2ccc(F)cc2)oc2cc(N(C)S(C)(=O)=O)c([C@@H]3CCCN(C(=O)c4cc5cccc(OC)c5[nH]4)C3)cc12 (single isomer, unassigned) [Example 42, 2-(4-fluorophenyl)-5-(1-(7-methoxy-1H-indole-2-carbonyl)piperidin-3-yl)-N-methyl-6-(N-methylmethylsulfonamido)benzofuran-3-carboxamide] | 106 | 23.9 |  | 
CNC(=O)c1c(-c2ccc(F)cc2)oc2cc(N(C)S(C)(=O)=O)c([C@@H]3CCCN(c4nc5ccccc5n4C)C3)cc12 (single isomer, unassigned) [Example 43, 2-(4-fluorophenyl)-N-methyl-5-(1-(1-methyl-1H-benzo[d]imidazol-2-yl)piperidin-3-yl)-6-(N-methylmethylsulfonamido)benzofuran-3-carboxamide] |  |  | 41.2 | 93
CNC(=O)c1c(-c2ccc(F)cc2)oc2cc(N(C)S(C)(=O)=O)c([C@@H]3CCCN(c4nc5ccccc5n4C)C3)cc12 (single isomer, unassigned) [Example 44, 2-(4-fluorophenyl)-N-methyl-5-(1-(1-methyl-1H-benzo[d]imidazol-2-yl)piperidin-3-yl)-6-(N-methylmethylsulfonamido)benzofuran-3-carboxamide] | 71 | 82.4 |  | 
CNC(=O)c1c(-c2ccc(F)cc2)oc2cc(N(C)S(C)(=O)=O)c([C@@H]3CCCN(c4nc5ccccc5[nH]4)C3)cc12 (single isomer, unassigned) [Example 45, 5-(1-(1H-benzo[d]imidazol-2-yl)piperidin-3-yl)-2-(4-fluorophenyl)-N-methyl-6-(N-methylmethylsulfonamido)benzofuran-3-carboxamide] | 225 | 70.9 |  | 
